Assay results from patent publication US11498899B2, “Nitrone herbicides” (FMC Corporation, priority 2016, dated 2022).

Experiments:
[1] = tested on: barnyardgrass (Echinochloa crus-galli); test: Test A preemergence, visual injury rating 0-100 (0 no effect, 100 complete control); format: in vivo; settings: for Barnyardgrass plant response rating: 0 to 100 scale
[2] = tested on: foxtail, green (green foxtail, Setaria viridis); test: Test A preemergence, visual injury rating 0-100; format: in vivo; settings: for Foxtail, Green plant response rating: 0 to 100 scale
[3] = tested on: pigweed (Amaranthus retroflexus); test: Test A preemergence, visual injury rating 0-100; format: in vivo; settings: for Pigweed plant response rating: 0 to 100 scale
[4] = tested on: kochia (Kochia scoparia); test: Test A preemergence, visual injury rating 0-100; format: in vivo; settings: for Kochia plant response rating: 0 to 100 scale
[5] = tested on: ragweed (common ragweed, Ambrosia elatior); test: Test A preemergence, visual injury rating 0-100; format: in vivo; settings: for Ragweed plant response rating: 0 to 100 scale
[6] = tested on: ryegrass, Italian (Italian ryegrass, Lolium multiflorum); test: Test A preemergence, visual injury rating 0-100; format: in vivo; settings: for Ryegrass, Italian plant response rating: 0 to 100 scale
[7] = tested on: rice (Oryza sativa); test: Test B flooded paddy test, visual rating 0-100 (0 no effect, 100 complete control); settings: Flood, 250 g ai/ha, applied to paddy water, rated after 13 to 15 days
[8] = tested on: ducksalad (Heteranthera limosa); test: Test B flooded paddy test, visual rating 0-100; settings: Flood, 250 g ai/ha, applied to paddy water, rated after 13 to 15 days
[9] = tested on: barnyardgrass (Echinochloa crus-galli); test: Test B flooded paddy test, visual rating 0-100; settings: Flood, 250 g ai/ha, applied to paddy water, rated after 13 to 15 days
[10] = tested on: barnyardgrass (Echinochloa crus-galli); test: Test A postemergence, visual injury rating 0-100; format: in vivo; settings: 0 to 100 scale
[11] = tested on: foxtail, green (green foxtail, Setaria viridis); test: Test A postemergence, visual injury rating 0-100; format: in vivo; settings: 0 to 100 scale
[12] = tested on: wheat (Triticum aestivum); test: Test A postemergence, visual injury rating 0-100; format: in vivo; settings: 0 to 100 scale
[13] = tested on: blackgrass (Alopecurus myosuroides); test: Test A postemergence, visual injury rating 0-100; format: in vivo; settings: 0 to 100 scale
[14] = tested on: pigweed (Amaranthus retroflexus); test: Test A postemergence, visual injury rating 0-100; format: in vivo; settings: 0 to 100 scale
[15] = tested on: corn (Zea mays); test: Test A postemergence, visual injury rating 0-100; format: in vivo; settings: 0 to 100 scale
[16] = tested on: kochia (Kochia scoparia); test: Test A postemergence, visual injury rating 0-100; format: in vivo; settings: 0 to 100 scale
[17] = tested on: ragweed (common ragweed, Ambrosia elatior); test: Test A postemergence, visual injury rating 0-100; format: in vivo; settings: 0 to 100 scale
[18] = tested on: ryegrass, Italian (Italian ryegrass, Lolium multiflorum); test: Test A postemergence, visual injury rating 0-100; format: in vivo; settings: 0 to 100 scale
[19] = tested on: foxtail, giant (giant foxtail, Setaria faberii); test: Test A preemergence, visual injury rating 0-100; format: in vivo
[20] = tested on: foxtail, giant (giant foxtail, Setaria faberii); test: Test A postemergence, visual injury rating 0-100; format: in vivo; settings: 0 to 100 scale
[21] = tested on: galium (catchweed bedstraw, Galium aparine); test: Test A postemergence, visual injury rating 0-100; format: in vivo; settings: 0 to 100 scale

Structure (SMILES)	Barnyardgrass plant response rating (0 to 100 scale) ([1]; 125 g ai/ha)	Pigweed plant response rating (0 to 100 scale) ([3]; 125 g ai/ha)	Kochia plant response rating (0 to 100 scale) ([4]; 125 g ai/ha)	Ragweed plant response rating (0 to 100 scale) ([5]; 125 g ai/ha)	Ryegrass, Italian plant response rating (0 to 100 scale) ([6]; 125 g ai/ha)	Rice plant response rating (0 to 100 scale) [7]	Ducksalad plant response rating (0 to 100 scale) [8]	Barnyardgrass plant response rating (0 to 100 scale) [9]	Barnyardgrass plant response rating ([10]; 125 g ai/ha)	Barnyardgrass plant response rating ([10]; 500 g ai/ha)	Wheat plant response rating ([12]; 125 g ai/ha)	Wheat plant response rating ([12]; 500 g ai/ha)	Blackgrass plant response rating ([13]; 125 g ai/ha)	Blackgrass plant response rating ([13]; 500 g ai/ha)	Pigweed plant response rating ([14]; 125 g ai/ha)	Pigweed plant response rating ([14]; 500 g ai/ha)	Corn plant response rating ([15]; 125 g ai/ha)	Corn plant response rating ([15]; 500 g ai/ha)	Kochia plant response rating ([16]; 125 g ai/ha)	Kochia plant response rating ([16]; 500 g ai/ha)	other results
CC1=[N+]([O-])C(C(=O)Nc2cccc(F)c2F)C(c2ccc(C#N)cc2)C1 (racemic) [Compound 22]	20	0	0	70	0	30	40	0	0	60	0	0	0	30	0	20	0	0	0	30	Barnyardgrass plant response rating ([1]; 500 g ai/ha): 80; Foxtail, Green plant response rating (0 to 100 scale) ([2]; 125 g ai/ha): 40; Foxtail, Green plant response rating ([2]; 500 g ai/ha): 70; Pigweed plant response rating ([3]; 500 g ai/ha): 20; Kochia plant response rating ([4]; 500 g ai/ha): 20; Ragweed plant response rating ([5]; 500 g ai/ha): 30; Ryegrass, Italian plant response rating ([6]; 500 g ai/ha): 0; Foxtail, Green plant response rating ([11]; 125 g ai/ha): 0; Foxtail, Green plant response rating ([11]; 500 g ai/ha): 50; Ragweed plant response rating ([17]; 125 g ai/ha): 0; Ragweed plant response rating ([17]; 500 g ai/ha): 0; Ryegrass, Italian plant response rating ([18]; 125 g ai/ha): 0; Ryegrass, Italian plant response rating ([18]; 500 g ai/ha): 0
CC1=[N+]([O-])C(C(=O)Nc2cccc(F)c2F)C(c2cccc(C#N)c2)C1 (racemic) [Compound 23]	60	0	20	50	0	0	60	50	70	80	20	50	0	0	0	0	0	0	0	20	Barnyardgrass plant response rating ([1]; 500 g ai/ha): 90; Foxtail, Green plant response rating (0 to 100 scale) ([2]; 125 g ai/ha): 80; Foxtail, Green plant response rating ([2]; 500 g ai/ha): 90; Pigweed plant response rating ([3]; 500 g ai/ha): 0; Kochia plant response rating ([4]; 500 g ai/ha): 50; Ragweed plant response rating ([5]; 500 g ai/ha): 80; Ryegrass, Italian plant response rating ([6]; 500 g ai/ha): 0; Foxtail, Green plant response rating ([11]; 125 g ai/ha): 30; Foxtail, Green plant response rating ([11]; 500 g ai/ha): 80; Ragweed plant response rating ([17]; 125 g ai/ha): 0; Ragweed plant response rating ([17]; 500 g ai/ha): 0; Ryegrass, Italian plant response rating ([18]; 125 g ai/ha): 0; Ryegrass, Italian plant response rating ([18]; 500 g ai/ha): 20
CC1=[N+]([O-])C(C(=O)Nc2cccc(F)c2F)C(c2ccc(C)c(C)c2)C1 (racemic) [Compound 24]	90	20	40	60	40	0	85	70	90	90	50	90	20	60	30	60	50	90	50	70	Barnyardgrass plant response rating ([1]; 500 g ai/ha): 90; Foxtail, Green plant response rating (0 to 100 scale) ([2]; 125 g ai/ha): 90; Foxtail, Green plant response rating ([2]; 500 g ai/ha): 90; Pigweed plant response rating ([3]; 500 g ai/ha): 50; Kochia plant response rating ([4]; 500 g ai/ha): 90; Ragweed plant response rating ([5]; 500 g ai/ha): 80; Ryegrass, Italian plant response rating ([6]; 500 g ai/ha): 70; Foxtail, Green plant response rating ([11]; 125 g ai/ha): 80; Foxtail, Green plant response rating ([11]; 500 g ai/ha): 90; Ragweed plant response rating ([17]; 125 g ai/ha): 20; Ragweed plant response rating ([17]; 500 g ai/ha): 50; Ryegrass, Italian plant response rating ([18]; 125 g ai/ha): 90; Ryegrass, Italian plant response rating ([18]; 500 g ai/ha): 80
CC1=[N+]([O-])C(C(=O)Nc2cccc(F)c2Cl)C(c2ccc(C(F)(F)F)cc2)C1 (racemic) [Compound 31]	50	0	0	0	0	0	0	0	30	90	0	40	20	80	0	30	0	10	0	10	Barnyardgrass plant response rating ([1]; 500 g ai/ha): 100; Foxtail, Green plant response rating (0 to 100 scale) ([2]; 125 g ai/ha): 90; Foxtail, Green plant response rating (0 to 100 scale) ([2]; 500 g ai/ha): 100; Pigweed plant response rating (0 to 100 scale) ([3]; 500 g ai/ha): 60; Kochia plant response rating (0 to 100 scale) ([4]; 500 g ai/ha): 80; Ragweed plant response rating (0 to 100 scale) ([5]; 500 g ai/ha): 90; Ryegrass, Italian plant response rating (0 to 100 scale) ([6]; 500 g ai/ha): 20; Foxtail, Green plant response rating ([11]; 125 g ai/ha): 40; Foxtail, Green plant response rating ([11]; 500 g ai/ha): 90; Ragweed plant response rating ([17]; 125 g ai/ha): 0; Ragweed plant response rating ([17]; 500 g ai/ha): 20; Ryegrass, Italian plant response rating ([18]; 125 g ai/ha): 20; Ryegrass, Italian plant response rating ([18]; 500 g ai/ha): 20
CC1=[N+]([O-])C(C(=O)Nc2cccc(F)c2F)C(c2ccc(C(F)(F)F)cc2F)C1 (centres unmarked) [Compound 101]	90	70	30	10	40	0	90	50	50	90	10	60	70	80	0	60	20	70	30	60	Barnyardgrass plant response rating (0 to 100 scale) ([1]; 500 g ai/ha): 90; Pigweed plant response rating (0 to 100 scale) ([3]; 500 g ai/ha): 90; Foxtail, Giant plant response rating (0 to 100 scale) ([19]; 125 g ai/ha): 90; Foxtail, Giant plant response rating (0 to 100 scale) ([19]; 500 g ai/ha): 90; Kochia plant response rating (0 to 100 scale) ([4]; 500 g ai/ha): 90; Ragweed plant response rating (0 to 100 scale) ([5]; 500 g ai/ha): 90; Ryegrass, Italian plant response rating (0 to 100 scale) ([6]; 500 g ai/ha): 90; Foxtail, Giant plant response rating ([20]; 125 g ai/ha): 80; Foxtail, Giant plant response rating ([20]; 500 g ai/ha): 90; Galium plant response rating ([21]; 125 g ai/ha): 70; Galium plant response rating ([21]; 500 g ai/ha): 80; Ragweed plant response rating ([17]; 125 g ai/ha): 30; Ragweed plant response rating ([17]; 500 g ai/ha): 60; Ryegrass, Italian plant response rating ([18]; 125 g ai/ha): 50; Ryegrass, Italian plant response rating ([18]; 500 g ai/ha): 50
